Assay results from patent publication US6358999B2, “Use of zinc tranexamate in the treatment of diabetes” (Hamari Chemicals, LTD, priority 2000, dated 2002).

Tests used:
intestinal α-glucosidase [1] = assay: Inhibition of intestinal α-glucosidase activity of normal mouse (intestinal homogenate, glucose production); format: biochemical; details: for Glucose (glucose production from isomaltose): substrate isomaltose; for Glucose (glucose production from isomaltose) / Glucose (glucose production from maltose) / Glucose (glucose production from sucrose): 37° C., 30 minutes; for Glucose (glucose production from maltose): substrate maltose; for Glucose (glucose production from sucrose): substrate sucrose
Protocol: (§1) Intestinal tract enucleated from a normal mouse was homogenized by the conventional method after removing membrane mucosa. As a substrate, sucrose, starch, maltose or isomaltose was used. The homogenate was incubated with the substrate in the presence of a test compound (Y-4 or zinc chloride) at 37° C. for 30 minutes. The reaction mixture was centrifuged and the glucose concentration in the resulting supernatant was assayed. The glucose assay was conducted calorimetrically by adding a chromogenic reagent (0.47 mol/l of orthotoluidine, 16 mol/l of acetic acid, 10 mmol/l of boric acid) to the supernatant, heating the mixture in a boiling water bath for 8 minutes and measuring the absorbance at 635 nm. α-Glucosidase activity expressed in terms of glucose concentration/mg protein was calculated.

[2] = 1,200 mg/kg orally administered to mice; cited from earlier work
[3] = Suppressive effect on elevation of blood sugar level after glucose loading in mice; format: in vivo
Protocol: Each group consisting of five mice was fasted for 17-24 hours and then Y-4 was orally administered at varying doses. After 30 minutes, mice were given glucose orally at a dose of 1 g/kg body weight. Blood samples were collected from the tail end of mice at different time intervals and assayed for blood sugar levels using GLUTEST™ sensor available from Matsushita Kotobuki Electronic Industry Company.

[4] = Suppressive effect on elevation of blood sugar level after sucrose loading in mice; format: in vivo
Protocol: Each group consisting of five mice was fasted for 17-24 hours and then Y-4 was orally administered at varying doses.
Mice were orally given 1 g/kg body weight of sucrose 30 minutes after the administration of Y-4 or 2 g/kg body weight of sucrose 2 hours after the administration of Y-4. As in the preceding example, blood samples were collected from the tail end of mice at different time intervals and assayed for blood sugar levels.

[5] = Blood sugar and insulin levels in streptozocin-induced diabetic mice after sucrose loading; format: in vivo; details: STZ diabetic mice; for Blood sugar level: 200 mg/kg p.o. 30 minutes before sucrose 2 g/kg
Protocol: Experimental diabetes was induced in mice by treating the mice with streptozocin (STZ) (100 mg/kg/day i.p. for two days). After fasting for 17-24 hours, the mice were orally given Y-4 at varying doses 30 minutes before loading 2 g/kg of sucrose. After sucrose loading, blood samples were collected and assayed for blood sugar levels at different time intervals as in the preceding examples.
Similar to the above experiments, Y-4 was orally administered to the mice having experimental diabetes at a dose of 100 mg/kg 30 minutes before loading of 2 g of sucrose. Blood sugar and insulin levels in blood samples collected 30 minutes after sugar loading are shown in FIG. 1 and FIG. 2, respectively.

intestinal α-glucosidase [6] = assay: Inhibition of intestinal α-glucosidase activity of streptozocin-induced diabetic mouse; format: biochemical; details: for Glucose (glucose production from maltose) / Glucose (glucose production from sucrose): diabetic mouse; for Glucose (glucose production from maltose): substrate maltose; for Glucose (glucose production from sucrose): substrate sucrose
Protocol: as §1
Example 5 was repeated using intestinal tract enucleated from a diabetic mouse induced by the treatment with streptozocin instead of intestinal tract enucleated from a normal mouse to determine the inhibitory effect of Y-4 on α-glycosidase activity. The intestinal α-glucosidase activity was higher in streptozocin-induced diabetic mouse than in normal mouse. […] The inhibitory effect of Y-4 was more remarkable in the diabetic mouse than in normal mouse.

[7] = Improvement of insulin resistance in Wistar fatty rats with type II diabetes (glucose loading after 8 weeks); format: in vivo; details: 150 mg/kg daily p.o. 8 weeks, after glucose 2.5 g/kg
Protocol: Y-4 was orally administered to male Wistar fatty rats (WFR) having tyep II diabetes with obesity and hyperlipidemia at an average daily dose of 150 mg/kg for consecutive 8 weeks. Eight weeks after the initiation of administration, the rats were fasted for 20 hours and then given oral administration of 2.5 g/kg/rat of glucose. Blood samples were collected from the tail vein at 30, 60, 120 and 180 minutes after the administration of glucose for assaying blood sugar and insulin levels. The results are shown in FIG. 3 and FIG. 4, respsectively.

[8] = 100 mg/kg p.o. 30 minutes before sucrose, 30 minutes after sugar loading

NC[C@H]1CC[C@H](C(=O)[O-])CC1.NC[C@H]1CC[C@H](C(=O)[O-])CC1.O.[Zn+2] [Y-4, zinc tranexamate monohydrate]
Glucose (glucose production from isomaltose) (intestinal α-glucosidase [1]; inhibitor 5 mM): 5.009 ± 0.387 mg/mg protein
Glucose (glucose production from isomaltose) (intestinal α-glucosidase [1]; inhibitor 10 mM): 4.150 ± 0.351 mg/mg protein
Glucose (glucose production from isomaltose) (intestinal α-glucosidase [1]; inhibitor 30 mM): 3.473 ± 0.520 mg/mg protein
Glucose (glucose production from isomaltose) (intestinal α-glucosidase [1]; inhibitor 50 mM): 3.158 ± 0.206 mg/mg protein
Glucose (glucose production from maltose) (intestinal α-glucosidase [1]; inhibitor 5 mM): 17.956 ± 0.423 mg/mg protein
Glucose (glucose production from maltose) (intestinal α-glucosidase [1]; inhibitor 10 mM): 14.810 ± 0.956 mg/mg protein
Glucose (glucose production from maltose) (intestinal α-glucosidase [1]; inhibitor 30 mM): 10.963 ± 0.399 mg/mg protein
Glucose (glucose production from maltose) (intestinal α-glucosidase [1]; inhibitor 50 mM): 5.353 ± 0.017 mg/mg protein
Glucose (glucose production from sucrose) (intestinal α-glucosidase [1]; inhibitor 5 mM): 4.078 ± 0.073 mg/mg protein
Glucose (glucose production from sucrose) (intestinal α-glucosidase [1]; inhibitor 10 mM): 1.682 ± 0.097 mg/mg protein
Glucose (glucose production from sucrose) (intestinal α-glucosidase [1]; inhibitor 30 mM): 0.726 ± 0.157 mg/mg protein
Glucose (glucose production from sucrose) (intestinal α-glucosidase [1]; inhibitor 50 mM): 0.436 ± 0.036 mg/mg protein
α-Glucosidase activity, all substrates (intestinal α-glucosidase [1]; sucrose, starch, maltose, isomaltose, concentration higher than 5 mM): inhibited α-glucosidase activity in the reaction with all substrates
Acute toxicity (death) [2]: no death
Blood sugar level ([3]; 50 mg/kg p.o. 30 min before glucose 1 g/kg, 20 min.): 96.0 ± 3.5 mg/dL
Blood sugar level ([3]; 50 mg/kg p.o. 30 min before glucose 1 g/kg, 40 min.): 104.8 ± 7.1 mg/dL
Blood sugar level ([3]; 50 mg/kg p.o. 30 min before glucose 1 g/kg, 60 min.): 99.0 ± 14.0 mg/dL
Blood sugar level ([3]; 50 mg/kg p.o. 30 min before glucose 1 g/kg, 120 min.): 78.4 ± 6.4 mg/dL
Blood sugar level ([3]; 50 mg/kg p.o. 30 min before glucose 1 g/kg, 180 min.): 58.4 ± 6.0 mg/dL
Blood sugar level ([3]; 100 mg/kg p.o. 30 min before glucose 1 g/kg, 20 min.): 89.0 ± 2.9 mg/dL
Blood sugar level ([3]; 100 mg/kg p.o. 30 min before glucose 1 g/kg, 40 min.): 112.6 ± 5.0 mg/dL
Blood sugar level ([3]; 100 mg/kg p.o. 30 min before glucose 1 g/kg, 60 min.): 97.6 ± 0.9 mg/dL
Blood sugar level ([3]; 100 mg/kg p.o. 30 min before glucose 1 g/kg, 120 min.): 73.1 ± 2.5 mg/dL
Blood sugar level ([3]; 100 mg/kg p.o. 30 min before glucose 1 g/kg, 180 min.): 52.1 ± 1.9 mg/dL
Blood sugar level ([3]; 200 mg/kg p.o. 30 min before glucose 1 g/kg, 20 min.): 83.0 ± 4.1 mg/dL
Blood sugar level ([3]; 200 mg/kg p.o. 30 min before glucose 1 g/kg, 40 min.): 95.2 ± 3.6 mg/dL
Blood sugar level ([3]; 200 mg/kg p.o. 30 min before glucose 1 g/kg, 60 min.): 84.4 ± 2.8 mg/dL
Blood sugar level ([3]; 200 mg/kg p.o. 30 min before glucose 1 g/kg, 120 min.): 66.2 ± 3.3 mg/dL
Blood sugar level ([3]; 200 mg/kg p.o. 30 min before glucose 1 g/kg, 180 min.): 53.9 ± 2.1 mg/dL
Elevation of blood sugar level after glucose loading ([3]; varying oral doses 30 minutes before glucose 1 g/kg): suppressed elevation of blood sugar level
Blood sugar level ([4]; 50 mg/kg p.o. 30 minutes before sucrose 1 g/kg, 20 min.): 71.0 ± 5.9 mg/dL
Blood sugar level ([4]; 50 mg/kg p.o. 30 minutes before sucrose 1 g/kg, 40 min.): 90.8 ± 10.0 mg/dL
Blood sugar level ([4]; 50 mg/kg p.o. 30 minutes before sucrose 1 g/kg, 60 min.): 76.6 ± 9.9 mg/dL
Blood sugar level ([4]; 50 mg/kg p.o. 30 minutes before sucrose 1 g/kg, 90 min.): 68.0 ± 8.1 mg/dL
Elevation of blood sugar level after sucrose loading ([4]; 100 mg/kg and 200 mg/kg 30 minutes before sucrose loading, up to 90 minutes): significant suppressive effect
Blood sugar level ([4]; 100 mg/kg p.o. 30 minutes before sucrose 1 g/kg, 20 min.): 50.8 ± 2.4 mg/dL
Blood sugar level ([4]; 100 mg/kg p.o. 30 minutes before sucrose 1 g/kg, 40 min.): 59.3 ± 2.4 mg/dL
Blood sugar level ([4]; 100 mg/kg p.o. 30 minutes before sucrose 1 g/kg, 60 min.): 72.9 ± 2.6 mg/dL
Blood sugar level ([4]; 100 mg/kg p.o. 30 minutes before sucrose 1 g/kg, 90 min.): 60.6 ± 2.3 mg/dL
Blood sugar level ([4]; 200 mg/kg p.o. 30 minutes before sucrose 1 g/kg, 20 min.): 40.4 ± 0.4 mg/dL
Blood sugar level ([4]; 200 mg/kg p.o. 30 minutes before sucrose 1 g/kg, 40 min.): 53.2 ± 7.5 mg/dL
Blood sugar level ([4]; 200 mg/kg p.o. 30 minutes before sucrose 1 g/kg, 60 min.): 58.2 ± 8.7 mg/dL
Blood sugar level ([4]; 200 mg/kg p.o. 30 minutes before sucrose 1 g/kg, 90 min.): 57.6 ± 3.2 mg/dL
Blood sugar level ([4]; 200 mg/kg p.o. 2 hours before sucrose 2 g/kg, 20 min.): 66.2 ± 6.3 mg/dL
Blood sugar level ([4]; 200 mg/kg p.o. 2 hours before sucrose 2 g/kg, 40 min.): 84.6 ± 8.9 mg/dL
Blood sugar level ([4]; 200 mg/kg p.o. 2 hours before sucrose 2 g/kg, 60 min.): 94.0 ± 18.0 mg/dL
Blood sugar level ([4]; 200 mg/kg p.o. 2 hours before sucrose 2 g/kg, 90 min.): 94.4 ± 17.2 mg/dL
Blood sugar level (FIG. 1) [5, 8]: suppressed the elevation of blood sugar level almost completely
Insulin level (FIG. 2) [5, 8]: not significantly different from the control value of normal mice group
Blood sugar level ([5]; 20 min.): 96.8 mg/dL
Blood sugar level ([5]; 40 min.): 134.2 mg/dL
Blood sugar level ([5]; 60 min.): 138.2 mg/dL
Blood sugar level ([5]; 90 min.): 137.0 mg/dL
Blood sugar level ([5]; 180 min.): 131.8 mg/dL
Elevation of blood sugar level after sucrose loading in diabetic mice ([5]; 30 minutes before sucrose loading, up to 3 hours): remarkably suppressed the elevation of blood sugar level
Glucose (glucose production from maltose) (intestinal α-glucosidase [6]; inhibitor 5 mM): 23.060 ± 1.129 mg/mg protein
Glucose (glucose production from maltose) (intestinal α-glucosidase [6]; inhibitor 10 mM): 18.569 ± 1.617 mg/mg protein
Glucose (glucose production from maltose) (intestinal α-glucosidase [6]; inhibitor 30 mM): 15.113 ± 0.093 mg/mg protein
Glucose (glucose production from maltose) (intestinal α-glucosidase [6]; inhibitor 50 mM): 12.793 ± 0.337 mg/mg protein
Glucose (glucose production from sucrose) (intestinal α-glucosidase [6]; inhibitor 5 mM): 10.128 ± 1.137 mg/mg protein
Glucose (glucose production from sucrose) (intestinal α-glucosidase [6]; inhibitor 10 mM): 5.312 ± 1.113 mg/mg protein
Glucose (glucose production from sucrose) (intestinal α-glucosidase [6]; inhibitor 30 mM): 3.146 ± 0.157 mg/mg protein
Glucose (glucose production from sucrose) (intestinal α-glucosidase [6]; inhibitor 50 mM): 2.251 ± 0.327 mg/mg protein
Inhibition of intestinal α-glucosidase, all substrates (intestinal α-glucosidase [6]; streptozocin-induced diabetic mouse): remarkably inhibited
Blood sugar level (FIG. 3) [7]: significantly controlled
Insulin level (FIG. 4) [7]: normalized
